Results reported in PubChem BioAssay AID2060505 (Molecular Pharmacology Branch, DTP, NCI, 2025).

System: 633275-114-R-J1-PDC complex spheroids, viability
Assay: Anticancer human tumor 633275-114-R-J1-PDC patient-derived endometrial adenocarcinoma cell line growth inhibition [GQUAD]
Conditions: for IC50: curve of first compound; for viability, T/C: stronger effect = lower value
Description: DNA G-quadruplex Stabilizer Agents in Combinations in Complex Spheroids
A high-throughput screen of multi-cell type tumor spheroids was designed to identify active combinations of DNA G-quadruplex stabilizer agents and targeted small molecules. Complex spheroids include a stromal component modeled by human endothelial cells (HUVEC) and fibroblasts modeled by human mesenchymal stem cells (MSCs). The concentration ranges selected for each drug and investigational agent were based upon clinically achievable concentrations if the clinical Cmax of the agent was known.
Compounds. The drugs and investigational agents: pidnarulex (CX-5461; NSC782164), APTO-253 (NSC789042), BRACO-19 (NSC847499), peposertib (NSC802822), ceralasertib (NSC780249), elimusertib (NSC800525), camonsertib (NSC841442), AZD-1390 (NSC803789), olaparib (NSC753686), talazoparib (NSC767125), ART-558 (NSC835418), sotorasib (NSC818433), MRTX-1133 (NSC836407), SN-38 (NSC673596), topotecan (NSC609699), etoposide (NSC141540), doxorubicin (NSC123127), gemcitabine (NSC613327), 5-fluorouracil (NSC19893), paclitaxel (NSC125973), vemurafenib (NSC761431), panobinostat (NSC761190), R-306465 (JNJ-16241199; NSC773264), adavosertib (NSC754352), TP-3654 (NSC805149), carboplatin (NSC241240), KSQ-4279 (NSC840948), and staurosporine (NSC755774) were obtained from the National Cancer Institute (NCI) Developmental Therapeutics Program Chemical Repository (34). The FDA-approved anticancer drug set is available from the NCI Developmental Therapeutics Program. […] The stock solutions were prepared in dimethyl sulfoxide (DMSO, Sigma-Aldrich, St. Louis, MO, cat. D2650) at 800-fold the tested concentration and stored at -70 degrees C prior to their use. All drugs and investigational agents were tested over a range starting from a high concentration at or near the clinical Cmax and decreasing in half-log increments. If the clinical Cmax for an agent had not been determined, the highest concentration tested was 10 microM.
2.3 Cell Culture. All cells were maintained in an incubator at 37 degrees C and 5% CO2 with 95% humidity. The PDC lines were cultured according to standard operating procedures established by the NCI PDMR. All PDCs were thawed and cultured in Matrigel-coated flasks prepared with a working solution of 1X Ham's F-12 nutrient mix, without supplementation (Invitrogen, cat. 11765054), 100 U/mL penicillin-streptomycin (Invitrogen, cat. 15140122), and 2.5% Matrigel (Corning Inc., cat. 354248) for the first three passages. The 857933-349-R-J2-PDC line was cultured in 6C/Colon 1B media, which includes advanced DMEM/F-12 (Thermo Fisher Scientific, cat. 12634028), 10 mM HEPES (Thermo Fisher Scientific, cat. 15630080), 1X GlutaMAX supplement (Thermo Fisher Scientific, cat. 35050061), 0.1 mg/mL primocin (InvivoGen, cat. ant-pm-2), 10% defined fetal bovine serum, heat inactivated (HyClone Laboratories Inc., cat. SH30070.03HI), 50% L-WRN conditioned media (ATCC, cat. CRL-3276), 1.25 mM N-Acetyl-L-cysteine (Sigma-Aldrich, cat. A9165), 10 mM nicotinamide (Sigma-Aldrich, cat. N0636), 1X B-27 supplement (Thermo Fisher Scientific, cat. 17504044), 1X N-2 supplement (Thermo Fisher Scientific, cat. 17502048), 10 microM Y-27632 dihydrochloride (Tocris Bioscience, cat. 1254), and 50 ng/mL human EGF recombinant protein (Thermo Fisher Scientific, cat. PHG0311). The 485176-168-R4-J1-PDC line was cultured in Panc media, which includes all 6C/Colon 1B media components plus 100 ng/mL human FGF-10 (Thermo Fisher Scientific, cat. 100-26), 500 nM SB-431542 (Selleckchem, cat. S1067), and gastrin (Tocris, cat. 3006).
[…]

[1] = second compound 0.0316 µM, first compound 0.0316 µM
[2] = second compound 0.0316 µM, first compound 0.1 µM
[3] = second compound 0.0316 µM, first compound 0.316 µM
[4] = second compound 0.0316 µM, first compound 1 µM
[5] = second compound 0.0316 µM, first compound 3.16 µM
[6] = second compound 0.0316 µM, first compound 10 µM
[7] = second compound 0.1 µM, first compound 0.0316 µM
[8] = second compound 0.1 µM, first compound 0.1 µM
[9] = second compound 0.1 µM, first compound 0.316 µM
[10] = second compound 0.1 µM, first compound 1 µM
[11] = second compound 0.1 µM, first compound 3.16 µM
[12] = second compound 0.1 µM, first compound 10 µM
[13] = second compound 0.316 µM, first compound 0.0316 µM
[14] = second compound 0.316 µM, first compound 0.1 µM
[15] = second compound 0.316 µM, first compound 0.316 µM
[16] = second compound 0.316 µM, first compound 1 µM
[17] = second compound 0.316 µM, first compound 3.16 µM
[18] = second compound 0.316 µM, first compound 10 µM
[19] = second compound 1 µM, first compound 0.0316 µM
[20] = second compound 1 µM, first compound 0.1 µM
[21] = second compound 1 µM, first compound 0.316 µM
[22] = second compound 1 µM, first compound 1 µM
[23] = second compound 1 µM, first compound 3.16 µM
[24] = second compound 1 µM, first compound 10 µM
[25] = second compound 3.16 µM, first compound 0.0316 µM
[26] = second compound 3.16 µM, first compound 0.1 µM
[27] = second compound 3.16 µM, first compound 0.316 µM
[28] = second compound 3.16 µM, first compound 1 µM
[29] = second compound 3.16 µM, first compound 3.16 µM
[30] = second compound 3.16 µM, first compound 10 µM
[31] = second compound 10 µM, first compound 0.0316 µM
[32] = second compound 10 µM, first compound 0.1 µM
[33] = second compound 10 µM, first compound 0.316 µM
[34] = second compound 10 µM, first compound 1 µM
[35] = second compound 10 µM, first compound 3.16 µM
[36] = second compound 10 µM, first compound 10 µM
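Further: spheroids exposed to the agents for seven days.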
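Wherever viability, T/C is given: percent of DMSO vehicle control viability which is 100%.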

In the case of `C#Cc1c(F)ccc2cc(O)cc(-c3ncc4c(N5CC6CCC(C5)N6)nc(OCC56CCCN5CC(F)C6)nc4c3F)c12` (centres undefined) + Cc1[nH]c2ccc(F)cc2c1-c1nc2c3cccnc3c3ncccc3c2[nH]1, the IC50 (second compound 0.0316 µM) is reported as over 10000 nM, the IC50 (second compound 0.1 µM) is reported as over 10000 nM and the IC50 (second compound 0.316 µM) is reported as over 10000 nM. The IC50 (second compound 1 µM) was over 10000 nM, the IC50 (second compound 3.16 µM) was 4830 nM and the IC50 (second compound 10 µM) was 4060 nM. For the same molecule, the viability, T/C [1] was 103%, the viability, T/C [2] was 89.9% and the viability, T/C [3] was 93.8%. It also gave a viability, T/C [4] of 81.1%, a viability, T/C [5] of 75.7% and a viability, T/C [6] of 60.6%. It also gave a viability, T/C [7] of 89.7%, a viability, T/C [8] of 107% and a viability, T/C [9] of 83.7%. It also gave a viability, T/C [10] of 88.4%, a viability, T/C [11] of 69.8% and a viability, T/C [12] of 64%. The viability, T/C [13] was 89.3%, the viability, T/C [14] was 86.7% and the viability, T/C [15] was 82.7%. For the same molecule, the viability, T/C [16] was 81.1%, the viability, T/C [17] was 77.5% and the viability, T/C [18] was 60.6%. For the same molecule, the viability, T/C [19] was 78.8%, the viability, T/C [20] was 82% and the viability, T/C [21] was 82.5%. For the same molecule, the viability, T/C [22] was 74.6%, the viability, T/C [23] was 71.5% and the viability, T/C [24] was 56.6%. For the same molecule, the viability, T/C [25] was 63.5%, the viability, T/C [26] was 66.1% and the viability, T/C [27] was 65.7%. For the same molecule, the viability, T/C [28] was 66.2%, the viability, T/C [29] was 52% and the viability, T/C [30] was 41.1%. The viability, T/C [31] was 58%, the viability, T/C [32] was 60.7% and the viability, T/C [33] was 60.7%. For the same molecule, the viability, T/C [34] was 62.4%, the viability, T/C [35] was 52.8% and the viability, T/C [36] was 34.7%.
Molecule `CC(C)(O)C1CCC(Nc2ccc3ncc(-c4cccc(C(F)(F)F)c4)n3n2)CC1` (centres undefined) + Cc1[nH]c2ccc(F)cc2c1-c1nc2c3cccnc3c3ncccc3c2[nH]1 has an IC50 (second compound 0.0316 µM) of 1970 nM, an IC50 (second compound 0.1 µM) of 2010 nM and an IC50 (second compound 0.316 µM) of 1780 nM. For the same molecule, the IC50 (second compound 1 µM) was 1910 nM, the IC50 (second compound 3.16 µM) was 947 nM and the IC50 (second compound 10 µM) was 1070 nM. For the same molecule, the viability, T/C [1] was 108%, the viability, T/C [2] was 103% and the viability, T/C [3] was 112%. For the same molecule, the viability, T/C [4] was 75.2%, the viability, T/C [5] was 32.2% and the viability, T/C [6] was 32.6%. It also gave a viability, T/C [7] of 98.7%, a viability, T/C [8] of 103% and a viability, T/C [9] of 101%. The viability, T/C [10] was 79.7%, the viability, T/C [11] was 28.9% and the viability, T/C [12] was 32.5%. The viability, T/C [13] was 95.5%, the viability, T/C [14] was 99.1% and the viability, T/C [15] was 90.5%. For the same molecule, the viability, T/C [16] was 70.2%, the viability, T/C [17] was 27.5% and the viability, T/C [18] was 32.6%. For the same molecule, the viability, T/C [19] was 89.6%, the viability, T/C [20] was 95.6% and the viability, T/C [21] was 86.8%. The viability, T/C [22] was 74.2%, the viability, T/C [23] was 31% and the viability, T/C [24] was 27%. It also gave a viability, T/C [25] of 72.6%, a viability, T/C [26] of 75.5% and a viability, T/C [27] of 69.9%. It also gave a viability, T/C [28] of 49.3%, a viability, T/C [29] of 27.4% and a viability, T/C [30] of 26.1%. For the same molecule, the viability, T/C [31] was 65.2%, the viability, T/C [32] was 69.8% and the viability, T/C [33] was 62.6%. For the same molecule, the viability, T/C [34] was 52.1%, the viability, T/C [35] was 24.1% and the viability, T/C [36] was 21.5%.
